This note sets out measurements from a polymer gas permeability compilation.

On to `*/C=C/c1ccc(*)cc1[Si](C)(C)C(C)(C)C` (repeat unit), for which the CO2 permeability turned out to be 26 Barrer, the N2 permeability came out at 1.5 Barrer and the O2 permeability is 6.5 Barrer.
The like results for `*/C=C/c1ccc(*)cc1[Si](C)(C)CCCC` (repeat unit) were, in that order, 14 Barrer, 1.1 Barrer and 3.5 Barrer.
The like results for `*/C=C/c1ccc(*)cc1[Si](C)(C)CCCCCCCC` (repeat unit) were, in that order, 60 Barrer, 3.9 Barrer and 12 Barrer.
The like results for `*/C=C/c1ccc(*)cc1[Si](C)(C)CCCCCCCCCCCCCCCCCC` (repeat unit) were, in that order, 61 Barrer, 4.5 Barrer and 12 Barrer.
The compound `*C(=C(*)c1ccc(CCCC)cc1)c1ccccc1` (repeat unit) had a CO2 permeability of 160 Barrer, an N2 permeability of 11 Barrer and an O2 permeability of 37 Barrer.
Take `*C(=C(*)c1ccc(S(=O)(=O)O)cc1)c1ccc(C(C)(C)C)cc1` (repeat unit): the CO2 permeability was 340 Barrer, the N2 permeability is 11 Barrer and the O2 permeability was determined as 45 Barrer.
The like results for `*C(=C(*)c1ccc(S(=O)(=O)O)cc1)c1ccc(S(=O)(=O)O)cc1` (repeat unit) were, in that order, 21 Barrer, 0.28 Barrer and 2.5 Barrer.
The like results for `*C(=C(*)c1ccc([Si](C)(C)CCCCCCCC)cc1)c1ccc(CCCC)cc1` (repeat unit) were, in that order, 110 Barrer, 7.9 Barrer and 25 Barrer.
As for `*C(C)=C(*)CC(C)C` (repeat unit), the CH4 permeability was determined as 190 Barrer, the CO2 permeability was determined as 900 Barrer, the H2 permeability came out at 750 Barrer and the N2 permeability amounted to 93 Barrer. This compound also had an O2 permeability of 245 Barrer.
The like results for `*C(C)=C(*)CCCCC` (repeat unit) were, in that order, 51 Barrer, 200 Barrer, 150 Barrer, 21 Barrer and 57 Barrer.
Consider `*CC(*)(C)C` (repeat unit), for which the H2 permeability turned out to be 13.3 Barrer, the N2 permeability was 0.76 Barrer and the O2 permeability was 2.89 Barrer.
On to `*CC(*)C` (repeat unit), for which the CO2 permeability turned out to be 9.2 Barrer, the N2 permeability worked out at 0.5 Barrer and the O2 permeability was 1.41 Barrer.
In the case of `*CC(*)OC1C2CC3CC(C2)CC1C3` (repeat unit), the CO2 permeability was determined as 25.2 Barrer, the N2 permeability came to 1.69 Barrer and the O2 permeability stood at 6.01 Barrer.
The like results for `*CC(*)OC1CC2CC1C1CCCC21` (repeat unit) were, in that order, 12.6 Barrer, 1.2 Barrer and 3.06 Barrer.
In turn, `*CC(*)OC1CC2CCC1C2` (repeat unit) gave a CO2 permeability of 25 Barrer, an N2 permeability of 0.96 Barrer and an O2 permeability of 3.55 Barrer.
The like results for `*CC(*)OCc1ccccc1` (repeat unit) were, in that order, 11.1 Barrer, 0.79 Barrer and 2.33 Barrer.
Consider `*CC(O)CO*` (repeat unit), for which the CO2 permeability was found to be 0.012 Barrer, the H2 permeability came out at 0.0228 Barrer and the O2 permeability came out at 0.0038 Barrer.
As to `*CC1CC(*)OCO1` (repeat unit), the H2 permeability is 0.93 Barrer, the N2 permeability was 0.018 Barrer and the O2 permeability turned out to be 0.024 Barrer.
For the compound `*CCC(F)(F)C(*)(F)F` (repeat unit), the CO2 permeability was 1.98 Barrer, the N2 permeability is 0.182 Barrer and the O2 permeability came out at 0.532 Barrer.
As to `*CCOC(=O)c1ccc2cc(C(=O)O*)ccc2c1` (repeat unit), the CO2 permeability came out at 0.131 Barrer and the O2 permeability stood at 0.0132 Barrer.
Compound `*CO*` (repeat unit) came in with a CO2 permeability of 0.45 Barrer, an N2 permeability of 0.024 Barrer and an O2 permeability of 0.09 Barrer.
The like results for `*Cc1cc(Cl)c(C*)cc1Cl` (repeat unit) were, in that order, 0.783 Barrer, 0.0271 Barrer and 0.181 Barrer.
Compound `*Cc1ccc(C*)c(C)c1` (repeat unit) had a CO2 permeability of 0.265 Barrer, an H2 permeability of 0.994 Barrer, an N2 permeability of 0.0157 Barrer and an O2 permeability of 0.0572 Barrer.
`*Cc1ccc(C*)c(Cl)c1` (repeat unit) returned a CO2 permeability of 0.0867 Barrer, an H2 permeability of 0.931 Barrer, an N2 permeability of 0.006 Barrer and an O2 permeability of 0.0456 Barrer.
The like results for `*Cc1ccc(C*)cc1` (repeat unit) were, in that order, 1.3 Barrer, 3.2 Barrer, 0.047 Barrer and 0.235 Barrer.
`*NC(=O)c1ccc(C(c2ccc(C(=O)Nc3c(C)cc4c(c3C)C3c5ccccc5C4c4cc(C)c(*)c(C)c43)cc2)(C(F)(F)F)C(F)(F)F)cc1` (repeat unit) showed a CO2 permeability of 121 Barrer, an H2 permeability of 212 Barrer, an N2 permeability of 5.8 Barrer and an O2 permeability of 27.5 Barrer.
The like results for `*Nc1ccc(*)cc1OC` (repeat unit) were, in that order, 1.06 Barrer, 6.04 Barrer, 0.047 Barrer and 0.202 Barrer.
Consider `*Nc1ccc(C(=O)c2ccc(NC(=O)c3cc(C(*)=O)cc(C(C)(C)C)c3)cc2)cc1` (repeat unit), for which the CO2 permeability amounted to 4.96 Barrer, the N2 permeability was found to be 0.23 Barrer and the O2 permeability is 1.16 Barrer.
For `*Nc1ccc(C(=O)c2ccc(NC(=O)c3cccc(C(*)=O)c3)cc2)cc1` (repeat unit), the CO2 permeability came out at 0.32 Barrer and the O2 permeability was 0.069 Barrer.
With `*Oc1cc2c(cc1O*)C1(CC2(C)C)CC(C)(C)c2cc3c(cc21)Oc1c(c(C(F)(F)F)c(*)c(*)c1S(=O)(=O)c1ccccc1)O3` (repeat unit), the CO2 permeability worked out at 2160 Barrer, the N2 permeability is 116 Barrer and the O2 permeability is 434 Barrer.
The like results for `*Oc1ccc(S(=O)(=O)c2ccc(Oc3c(C)cc(C(c4cc(C)c(*)c(C)c4)(C(F)(F)F)C(F)(F)F)cc3C)cc2C(O)(C(F)(F)F)C(F)(F)F)c(C(O)(C(F)(F)F)C(F)(F)F)c1` (repeat unit) were, in that order, 81 Barrer, 5.92 Barrer and 14 Barrer.
The like results for `*Oc1ccc(S(=O)(=O)c2ccc(Oc3ccc(C(C)(C)c4ccc(*)c(C(O)(C(F)(F)F)C(F)(F)F)c4)cc3C(O)(C(F)(F)F)C(F)(F)F)cc2)cc1` (repeat unit) were, in that order, 5.4 Barrer, 0.22 Barrer and 1.5 Barrer.
For the compound `*Oc1ccc2nc(-c3ccccc3)c(-c3ccc(-c4nc5cc(*)ccc5nc4-c4ccccc4)cc3)nc2c1` (repeat unit), the H2 permeability was determined as 17.2 Barrer.
The compound `*c1c(C)cc(C)c(-n2c(=O)c3cc4c(=O)n(*)c(=O)c4cc3c2=O)c1C` (repeat unit) yielded an H2 permeability of 235 Barrer, an N2 permeability of 8.44 Barrer and an O2 permeability of 36.3 Barrer.
The like results for `*c1c(C)cc(C)c(N2C(=O)c3ccc(C(=O)c4ccc5c(c4)C(=O)N(*)C5=O)cc3C2=O)c1C` (repeat unit) were, in that order, 46.4 Barrer, 1 Barrer and 5 Barrer.
The like results for `*c1c(C)cc(C)c(N2C(=O)c3ccc(Oc4ccc(Oc5ccc6c(c5)C(=O)N(*)C6=O)cc4)cc3C2=O)c1C` (repeat unit) were, in that order, 40 Barrer, 0.732 Barrer and 4.42 Barrer.
Regarding `*c1c(C)cc(C)c(N2C(=O)c3ccc(Sc4ccc5c(c4)C(=O)N(*)C5=O)cc3C2=O)c1C` (repeat unit), the H2 permeability turned out to be 68.6 Barrer, the N2 permeability turned out to be 1.62 Barrer and the O2 permeability amounted to 8.2 Barrer.
As for `*c1ccc(-c2ccc(N3C(=O)c4ccc(C(=O)Oc5ccc(C(c6ccc(OC(=O)c7ccc8c(c7)C(=O)N(*)C8=O)cc6)(C(F)(F)F)C(F)(F)F)cc5)cc4C3=O)cc2)cc1` (repeat unit), the H2 permeability came out at 5.01 Barrer, the N2 permeability was found to be 0.0517 Barrer and the O2 permeability was 0.348 Barrer.
The like results for `*c1ccc(-c2ccc(N3C(=O)c4ccc([Si](C)(C)c5ccc6c(c5)C(=O)N(*)C6=O)cc4C3=O)cc2)cc1` (repeat unit) were, in that order, 8.38 Barrer, 0.109 Barrer and 0.677 Barrer.
As for `*c1ccc(-c2nc3cc(-c4ccc5[nH]c(*)nc5c4)ccc3[nH]2)cc1` (repeat unit), the H2 permeability stood at 0.16 Barrer and the O2 permeability was found to be 0.004 Barrer.
In the case of `*c1ccc(Cc2ccc(N3C(=O)c4ccc(C(=O)Oc5ccc(C(c6ccc(OC(=O)c7ccc8c(c7)C(=O)N(*)C8=O)cc6)(C(F)(F)F)C(F)(F)F)cc5)cc4C3=O)cc2)cc1` (repeat unit), the H2 permeability was 11.8 Barrer, the N2 permeability turned out to be 0.164 Barrer and the O2 permeability was determined as 0.917 Barrer.
The like results for `*c1ccc(Cc2ccc(N3C(=O)c4ccc(C(=O)c5ccc6c(c5)C(=O)N(*)C6=O)cc4C3=O)cc2)cc1` (repeat unit) were, in that order, 4.03 Barrer, 0.02 Barrer and 0.211 Barrer.
Compound `*c1ccc(Oc2ccc(C(=O)c3ccc(Oc4ccc(C(*)(c5ccccc5)C(F)(F)F)cc4)cc3)cc2)cc1` (repeat unit) returned a CO2 permeability of 4.2 Barrer, an H2 permeability of 11 Barrer, an N2 permeability of 0.15 Barrer and an O2 permeability of 0.91 Barrer.
The like results for `*c1ccc(Oc2ccc(C(C)(C)c3ccc(Oc4ccc(N5C(=O)c6ccc(C(=O)c7ccc8c(c7)C(=O)N(*)C8=O)cc6C5=O)cc4)cc3)cc2)cc1` (repeat unit) were, in that order, 2.8 Barrer, 8.9 Barrer, 0.11 Barrer and 0.54 Barrer.
The like results for `*c1cccc(N2C(=O)c3ccc(Oc4ccc(Oc5ccc6c(c5)C(=O)N(*)C6=O)cc4)cc3C2=O)c1` (repeat unit) were, in that order, 0.598 Barrer, 3.75 Barrer, 0.016 Barrer and 0.149 Barrer.
